Columns and labels:
HCT-116 = experiment: Antiproliferative activity against human HCT116 cells after 72 hrs by CCK-8 assay; format: functional, cell-based; conditions: for IC50: HCT-116, 72 h
Histone deacetylase 1 = Histone deacetylase 1 (Homo sapiens, UniProt Q13547); experiment: Inhibition of human recombinant HDAC1 using Fluor de Lys-Green as substrate preincubated for 5 mins followed by substrate addition and measured after 1 hr by fluorescence assay
SMMC-7721 [1] = experiment: Induction of apoptosis in human SMMC7721 cells assessed as late apoptotic cells at 1 umol/L after 72 hrs by Alexa Fluor 488 Annexin/propidium iodide staining-based flow cytometric analysis (reference value: 0.29%); format: functional
SMMC-7721 [2] = experiment: Cell cycle arrest in human SMMC7721 cells assessed as accumulation of cells at G2/M phase at 0.125 umol/L after 72 hrs by propidium iodide staining-based flow cytometric analysis (reference value: 14.14%); format: functional
SMMC-7721 [3] = experiment: Induction of apoptosis in human SMMC7721 cells after 72 hrs by Alexa Fluor 488 Annexin/propidium iodide staining-based flow cytometric analysis; format: functional, cell-based
A-375 [4] = experiment: Antiproliferative activity against human A375 cells at 8 uM after 72 hrs by CCK-8 assay relative to control; format: functional; conditions: A-375, 72 h
SMMC-7721 [5] = experiment: Cell cycle arrest in human SMMC7721 cells assessed as accumulation of cells at G0/G1 phase at 0.125 umol/L after 72 hrs by propidium iodide staining-based flow cytometric analysis (reference value: 80.65%); format: functional
SMMC-7721 [6] = experiment: Cell cycle arrest in human SMMC7721 cells assessed as accumulation of cells at G2/M phase at 1 umol/L after 72 hrs by propidium iodide staining-based flow cytometric analysis (reference value: 14.14%); format: functional
NCI-H1299 = experiment: Antiproliferative activity against human NCI-H1299 cells after 72 hrs by CCK-8 assay; format: functional, cell-based; conditions: for IC50: NCI-H1299, 72 h
Histone deacetylase = experiment: Inhibition of HDAC in human HeLa cell extract using Fluor de Lys-Green as substrate preincubated for 5 mins followed by substrate addition and measured after 1 hr by fluorescence assay; format: protein assay
HeLa [7] = experiment: Antiproliferative activity against human HeLa cells at 2 uM after 72 hrs by CCK-8 assay relative to control; format: functional
A-375 [8] = experiment: Antiproliferative activity against human A375 cells at 2 uM after 72 hrs by CCK-8 assay relative to control; format: functional; conditions: A-375, 72 h
MGC-803 = experiment: Antiproliferative activity against human MGC803 cells at 2 uM after 72 hrs by CCK-8 assay relative to control; format: functional; conditions: MGC-803, 72 h
SMMC-7721 [9] = experiment: Cell cycle arrest in human SMMC7721 cells assessed as accumulation of cells at S phase at 0.125 umol/L after 72 hrs by propidium iodide staining-based flow cytometric analysis (reference value: 5.21%); format: functional
SMMC-7721 [10] = experiment: Induction of apoptosis in human SMMC7721 cells assessed as early apoptotic cells at 1 umol/L after 72 hrs by Alexa Fluor 488 Annexin/propidium iodide staining-based flow cytometric analysis (reference value: 0.09%); format: functional
A-375 [11] = experiment: Antiproliferative activity against human A375 cells after 72 hrs by CCK-8 assay; format: functional, cell-based; conditions: for IC50: A-375, 72 h
SMMC-7721 [12] = experiment: Cell cycle arrest in human SMMC7721 cells assessed as accumulation of cells at […] phase after 72 hrs by propidium iodide staining-based flow cytometric analysis; format: functional
HeLa [13] = experiment: Antiproliferative activity against human HeLa cells after 72 hrs by CCK-8 assay; format: functional, cell-based

Histone deacetylase 1, sequence (Q13547 whole entry): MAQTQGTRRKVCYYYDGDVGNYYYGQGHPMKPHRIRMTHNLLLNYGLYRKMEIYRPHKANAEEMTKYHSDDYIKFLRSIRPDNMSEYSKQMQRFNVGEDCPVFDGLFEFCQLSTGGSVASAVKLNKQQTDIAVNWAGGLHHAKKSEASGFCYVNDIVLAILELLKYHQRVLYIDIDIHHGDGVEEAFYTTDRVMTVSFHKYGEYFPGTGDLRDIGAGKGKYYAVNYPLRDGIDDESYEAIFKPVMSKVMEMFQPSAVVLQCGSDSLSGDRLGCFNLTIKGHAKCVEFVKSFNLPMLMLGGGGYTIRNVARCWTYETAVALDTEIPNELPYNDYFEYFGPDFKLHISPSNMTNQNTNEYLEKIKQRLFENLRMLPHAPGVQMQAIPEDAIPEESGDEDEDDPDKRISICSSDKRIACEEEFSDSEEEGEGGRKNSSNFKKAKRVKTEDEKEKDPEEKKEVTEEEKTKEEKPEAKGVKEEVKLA

SMILES	IC50 (HCT-116) [nM]	IC50 (Histone deacetylase 1) [nM]	Activity (SMMC-7721 [1]) [%]	Activity (SMMC-7721 [2]) [%]	Activity (SMMC-7721 [3])	inhibition at 8 µM (A-375 [4]) [%]	Activity (SMMC-7721 [5])	Activity (SMMC-7721 [5]; record 2) [%]	Activity (SMMC-7721 [6]) [%]	IC50 (NCI-H1299) [nM]	IC50 (Histone deacetylase) [nM]	inhibition at 2 µM (HeLa [7]) [%]	inhibition at 2 µM (A-375 [8]) [%]	inhibition at 2 µM (MGC-803) [%]	Activity (SMMC-7721 [9]) [%]	Activity (SMMC-7721 [10]) [%]	IC50 (A-375 [11]) [nM]	Activity (SMMC-7721 [12])	IC50 (HeLa [13]) [nM]	other results
CCN(Cc1ccncc1)C(=S)SCc1ccc(C(=O)Nc2ccccc2N)cc1	750	1380	14.06	11.92	Dose-dependent effect	86.2	Dose-dependent effect	81.27	21.11	750	1800	63.5	67.2	71.6	6.81	18.06	1940	Dose-dependent effect	1040	–
Nc1ccccc1NC(=O)c1ccc(CSC(=S)N2CCc3ccccc3C2)cc1	1560	2570	12.44	15.89	Dose-dependent effect	86.7	Dose-dependent effect	78.41	23.16	980	–	54.4	55.5	80.9	5.7	27.39	1970	Dose-dependent effect	1460	–
Nc1ccccc1NC(=O)c1ccc(CSC(=S)N2CCN(c3ccncc3)CC2)cc1	540	480	11.06	12.01	Dose-dependent effect	90.7	Dose-dependent effect	80.71	13.68	2490	720	77	85.7	64.8	7.28	17.23	1270	–	790	Activity (HCT-116): Dose-dependent effect; Activity (NCI-H1299): Dose-dependent effect; Activity (A-375 [11]): Dose-dependent effect; Activity (HeLa [13]): Dose-dependent effect

— ChEMBL document CHEMBL4251578, “Design, synthesis and biological evaluation of novel 2-aminobenzamides containing dithiocarbamate moiety as histone deacetylase inhibitors and potent antitumor agents” (Eur J Med Chem, 2018)
